Active and inactive are the calls of the source.
How the values were obtained:
[1] = molecular target: T1, Protein RecA (Mycobacterium tuberculosis, UniProt P9WHJ3); test: Fluorescence Cell-Free Homogeneous Dose Retest to Identify Inhibitors of RecA-Intein Splicing Activity. [Related pubchem assays (depositor defined):AID2097, AID2223, AID489010, AID492950]; type: functional
T1 sequence (P9WHJ3 whole entry): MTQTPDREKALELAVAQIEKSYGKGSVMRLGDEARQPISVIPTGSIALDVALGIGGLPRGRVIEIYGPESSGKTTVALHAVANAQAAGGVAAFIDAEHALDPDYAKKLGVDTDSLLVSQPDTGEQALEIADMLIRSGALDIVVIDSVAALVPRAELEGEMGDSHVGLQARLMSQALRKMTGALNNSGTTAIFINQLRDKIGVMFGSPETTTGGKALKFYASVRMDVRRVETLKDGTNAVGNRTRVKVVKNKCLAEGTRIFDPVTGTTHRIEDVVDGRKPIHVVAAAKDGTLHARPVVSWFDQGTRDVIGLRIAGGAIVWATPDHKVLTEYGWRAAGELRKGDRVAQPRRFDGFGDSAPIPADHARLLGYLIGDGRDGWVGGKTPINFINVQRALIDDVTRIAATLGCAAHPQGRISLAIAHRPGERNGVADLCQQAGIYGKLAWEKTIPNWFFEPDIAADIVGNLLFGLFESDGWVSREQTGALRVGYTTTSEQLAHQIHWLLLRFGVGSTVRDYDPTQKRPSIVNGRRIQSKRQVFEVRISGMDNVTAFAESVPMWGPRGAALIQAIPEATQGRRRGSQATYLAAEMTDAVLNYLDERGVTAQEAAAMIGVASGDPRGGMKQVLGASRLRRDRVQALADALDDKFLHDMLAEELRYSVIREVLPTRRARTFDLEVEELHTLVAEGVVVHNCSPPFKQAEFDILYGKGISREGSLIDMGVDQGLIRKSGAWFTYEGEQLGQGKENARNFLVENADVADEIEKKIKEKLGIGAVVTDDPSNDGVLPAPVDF

[2] = molecular target: T2, Replicative DNA helicase DnaB (Mycobacterium tuberculosis, UniProt P9WMR3); test: DnaB intein splicing inhibitors, dose response, biochemical, cell-free fluorescence (AID 449749); type: functional
T2 sequence (P9WMR3 whole entry): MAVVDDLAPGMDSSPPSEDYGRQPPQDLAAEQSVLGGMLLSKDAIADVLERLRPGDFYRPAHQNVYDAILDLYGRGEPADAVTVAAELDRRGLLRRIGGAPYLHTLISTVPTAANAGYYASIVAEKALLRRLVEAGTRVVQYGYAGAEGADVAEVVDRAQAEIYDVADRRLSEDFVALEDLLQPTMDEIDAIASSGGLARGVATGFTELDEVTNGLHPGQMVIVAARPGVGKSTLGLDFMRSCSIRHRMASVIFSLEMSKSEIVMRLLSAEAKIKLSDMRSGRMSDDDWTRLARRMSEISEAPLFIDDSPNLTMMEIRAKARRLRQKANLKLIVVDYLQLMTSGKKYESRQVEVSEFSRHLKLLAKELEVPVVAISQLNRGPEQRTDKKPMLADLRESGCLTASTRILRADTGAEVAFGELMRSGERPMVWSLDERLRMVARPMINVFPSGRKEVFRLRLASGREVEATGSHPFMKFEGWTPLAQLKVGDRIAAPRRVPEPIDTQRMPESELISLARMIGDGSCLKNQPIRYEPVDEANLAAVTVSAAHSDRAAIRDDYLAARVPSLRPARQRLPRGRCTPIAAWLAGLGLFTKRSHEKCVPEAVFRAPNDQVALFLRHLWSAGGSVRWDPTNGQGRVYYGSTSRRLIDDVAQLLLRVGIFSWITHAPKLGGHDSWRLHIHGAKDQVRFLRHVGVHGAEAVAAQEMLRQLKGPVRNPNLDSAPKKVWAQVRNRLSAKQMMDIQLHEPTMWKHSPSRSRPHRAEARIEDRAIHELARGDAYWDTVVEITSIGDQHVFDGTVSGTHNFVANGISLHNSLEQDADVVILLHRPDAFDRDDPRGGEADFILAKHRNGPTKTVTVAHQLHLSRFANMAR

[3] = Vero cell cytotoxicity, cytotoxicity control for M. tuberculosis inhibitor project, purified and synthesized samples, set 3 (AID 504684); type: functional
[4] = A Cell Based Secondary Assay to Explore Cytotoxicity in THP-1 Cells of Compounds that Modulate Mycobacterium tuberculosis in Media Containing Glycerol versus Media without Glycerol (2).; type: functional
[5] = molecular target: Genome polyprotein (dengue virus type 2, UniProt P29990); test: flavivirus cap methylation enzyme inhibition – biochemical, confirmation dose response, primary screen (AID 588689); type: functional
[6] = molecular target: T3, Estrogen receptor (Homo sapiens, UniProt P03372);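 note: potency for inhibiting coactivator peptide recruitment to the receptor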
T3 sequence (P03372 whole entry): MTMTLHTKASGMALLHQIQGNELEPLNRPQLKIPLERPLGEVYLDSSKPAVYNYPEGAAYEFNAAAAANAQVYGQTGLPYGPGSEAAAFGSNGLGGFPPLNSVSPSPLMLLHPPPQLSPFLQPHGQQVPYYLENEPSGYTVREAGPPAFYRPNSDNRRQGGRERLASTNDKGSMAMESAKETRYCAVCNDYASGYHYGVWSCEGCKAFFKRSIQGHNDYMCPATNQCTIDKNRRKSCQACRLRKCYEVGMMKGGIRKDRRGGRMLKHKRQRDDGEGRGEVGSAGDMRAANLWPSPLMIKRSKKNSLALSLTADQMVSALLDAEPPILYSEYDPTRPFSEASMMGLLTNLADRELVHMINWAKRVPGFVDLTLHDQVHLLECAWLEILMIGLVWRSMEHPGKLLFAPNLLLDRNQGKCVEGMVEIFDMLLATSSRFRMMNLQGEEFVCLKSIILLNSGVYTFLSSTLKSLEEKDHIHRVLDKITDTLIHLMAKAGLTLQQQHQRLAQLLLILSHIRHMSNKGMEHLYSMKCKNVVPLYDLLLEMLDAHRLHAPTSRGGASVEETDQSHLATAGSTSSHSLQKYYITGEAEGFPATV

[7] = molecular target: DNA (cytosine-5)-methyltransferase 1 (Homo sapiens, UniProt P26358); test: inhibition of DNA methylation by DNMT1 – biochemical, fluorescent molecular beacon, confirmation (AID 602386); type: functional
[8] = molecular target: Nonstructural protein 1 (Influenza A virus, UniProt Q194T2); type: functional, Influenza A virus (A/California/07/2009(H1N1))
[9] = molecular target: T4, Estrogen receptor beta (Homo sapiens, UniProt Q92731); test: blockers of SRC-3 recruitment to ERβ – biochemical, ELISA, streptavidin-HRP readout, orthogonal assay, confirmation (AID 1060)
[10] = tested on: Streptococcus sp. 'group A'; test: Streptococcus pyogenes SK(-)GAS viability under kanamycin – luminescence, BacTiterGlo, confirmation, counter-screen for streptokinase expression inhibitor project, dose response (AID 1900); type: functional, organism-based
[11] = tested on: Streptococcus; test: GAS UMAA2166 growth inhibition – luminescence, BacTiterGlo, counter-screen for streptokinase expression inhibitor project, dose response (AID 1915); type: functional, organism-based;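 note: potency for reduction of bacterial viability or growth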
[12] = molecular target: T4, Estrogen receptor beta
[13] = blockers of CRF-binding protein–CRF-R2 complex – cell-based, uHTS hits, 384-well, dose response (AID 651639); type: functional, Homo sapiens; conditions: read-out: IC50_Mean
[14] = molecular target: T5, Carboxy-terminal domain RNA polymerase II polypeptide A small phosphatase 1 (Homo sapiens, UniProt Q9GZU7); test: CTDSP1 inhibitors, concentration-response, biochemical, absorbance readout, ultra-high-throughput screen actives (AID 540297); type: functional
T5 sequence (Q9GZU7 whole entry): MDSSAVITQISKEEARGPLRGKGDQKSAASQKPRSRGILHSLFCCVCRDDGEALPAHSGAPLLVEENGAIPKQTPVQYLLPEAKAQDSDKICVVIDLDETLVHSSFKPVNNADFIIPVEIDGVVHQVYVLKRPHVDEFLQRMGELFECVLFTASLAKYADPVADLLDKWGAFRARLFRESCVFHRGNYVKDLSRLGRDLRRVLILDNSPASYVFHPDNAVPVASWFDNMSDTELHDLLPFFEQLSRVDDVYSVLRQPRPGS

[15] = molecular target: T6, Corticotropin-releasing factor receptor 2/Corticotropin-releasing factor-binding protein (Homo sapiens, UniProt P24387+Q13324); test: Dose Response confirmation of uHTS hits for small molecule antagonists of the CRF-binding protein and CRF-R2 receptor complex.; type: functional; conditions: read-out: IC50_Mean
T6 sequence (Q13324 whole entry): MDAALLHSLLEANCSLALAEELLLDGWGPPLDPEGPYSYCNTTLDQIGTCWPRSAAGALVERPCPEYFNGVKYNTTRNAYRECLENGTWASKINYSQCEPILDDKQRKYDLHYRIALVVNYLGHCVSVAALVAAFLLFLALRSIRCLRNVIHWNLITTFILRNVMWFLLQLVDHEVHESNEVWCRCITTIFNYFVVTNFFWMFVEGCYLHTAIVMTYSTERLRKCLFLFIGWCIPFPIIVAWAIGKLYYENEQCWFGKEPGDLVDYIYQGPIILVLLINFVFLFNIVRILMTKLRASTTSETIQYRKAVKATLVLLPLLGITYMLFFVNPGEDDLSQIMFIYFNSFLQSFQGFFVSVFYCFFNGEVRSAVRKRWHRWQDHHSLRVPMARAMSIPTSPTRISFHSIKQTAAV
T6 sequence (P24387 whole entry): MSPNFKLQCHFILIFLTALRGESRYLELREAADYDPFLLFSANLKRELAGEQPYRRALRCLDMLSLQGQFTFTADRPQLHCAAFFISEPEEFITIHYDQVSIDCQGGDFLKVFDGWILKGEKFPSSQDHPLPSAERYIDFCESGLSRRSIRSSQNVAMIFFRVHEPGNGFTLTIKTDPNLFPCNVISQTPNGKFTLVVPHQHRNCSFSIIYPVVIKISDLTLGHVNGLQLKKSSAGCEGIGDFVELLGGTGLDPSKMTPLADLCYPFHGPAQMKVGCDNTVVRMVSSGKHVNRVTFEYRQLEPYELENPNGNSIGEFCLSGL

[16] = molecular target: T6, Corticotropin-releasing factor receptor 2/Corticotropin-releasing factor-binding protein; test: activators of CRF receptor 2 with binding protein – uHTS hits, confirmation (AID 602473); type: functional; conditions: read-out: EC50_Mean
[17] = molecular target: Hepatocyte nuclear factor 4-alpha (Homo sapiens, UniProt P41235); type: functional, cell-based;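 note: biochemical luminescence-based dose-response counterscreen measuring inhibition of HNF4 dimerization, run alongside a screen for blockers of ABHD5–perilipin-5 interaction; split luciferase complementation of HNF4 fusion proteins in cell lysate measuring dimerization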
[18] = molecular target: T7, Aryl hydrocarbon receptor (Homo sapiens, UniProt P35869); conditions: Potency;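 note: confirmatory quantitative high-throughput screen measuring activation of the AhR signaling pathway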
T7 sequence (P35869 whole entry): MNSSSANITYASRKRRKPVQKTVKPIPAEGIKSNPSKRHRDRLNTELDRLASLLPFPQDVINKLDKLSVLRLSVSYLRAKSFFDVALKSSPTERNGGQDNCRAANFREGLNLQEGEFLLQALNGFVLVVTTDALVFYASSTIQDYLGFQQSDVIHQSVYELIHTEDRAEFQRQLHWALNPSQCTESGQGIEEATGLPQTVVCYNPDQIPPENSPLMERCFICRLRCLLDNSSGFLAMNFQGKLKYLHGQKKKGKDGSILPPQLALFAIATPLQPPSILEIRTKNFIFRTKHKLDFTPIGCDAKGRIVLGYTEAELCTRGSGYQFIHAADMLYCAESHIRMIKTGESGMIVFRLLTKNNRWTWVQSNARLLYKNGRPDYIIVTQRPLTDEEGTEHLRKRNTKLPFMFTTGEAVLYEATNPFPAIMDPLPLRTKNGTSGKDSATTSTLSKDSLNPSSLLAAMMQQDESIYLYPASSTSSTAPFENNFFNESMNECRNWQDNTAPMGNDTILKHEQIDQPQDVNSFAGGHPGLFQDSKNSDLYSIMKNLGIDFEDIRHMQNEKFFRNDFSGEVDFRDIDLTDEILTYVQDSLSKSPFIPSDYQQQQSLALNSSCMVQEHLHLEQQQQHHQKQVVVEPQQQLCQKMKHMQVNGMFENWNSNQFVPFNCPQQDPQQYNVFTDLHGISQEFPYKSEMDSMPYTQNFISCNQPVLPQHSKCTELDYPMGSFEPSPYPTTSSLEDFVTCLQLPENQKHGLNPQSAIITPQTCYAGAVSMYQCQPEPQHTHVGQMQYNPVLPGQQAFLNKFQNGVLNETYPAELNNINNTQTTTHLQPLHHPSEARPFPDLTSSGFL

T4 sequence (Q92731 whole entry): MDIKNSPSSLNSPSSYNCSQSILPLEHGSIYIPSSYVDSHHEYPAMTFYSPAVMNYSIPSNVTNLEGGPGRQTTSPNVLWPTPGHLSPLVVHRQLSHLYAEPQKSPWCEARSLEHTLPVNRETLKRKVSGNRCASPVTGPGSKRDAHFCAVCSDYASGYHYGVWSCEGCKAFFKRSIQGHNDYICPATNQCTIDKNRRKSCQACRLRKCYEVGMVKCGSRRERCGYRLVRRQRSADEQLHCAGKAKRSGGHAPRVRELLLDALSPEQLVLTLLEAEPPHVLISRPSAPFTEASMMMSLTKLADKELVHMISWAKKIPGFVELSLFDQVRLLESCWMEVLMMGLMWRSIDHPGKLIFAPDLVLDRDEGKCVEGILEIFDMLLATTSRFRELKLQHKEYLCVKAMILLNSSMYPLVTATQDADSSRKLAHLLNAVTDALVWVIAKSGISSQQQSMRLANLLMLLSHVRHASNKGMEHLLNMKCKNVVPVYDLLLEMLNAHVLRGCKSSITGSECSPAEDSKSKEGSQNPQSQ
Chain of Nonstructural protein 1 (Q194T2 whole entry): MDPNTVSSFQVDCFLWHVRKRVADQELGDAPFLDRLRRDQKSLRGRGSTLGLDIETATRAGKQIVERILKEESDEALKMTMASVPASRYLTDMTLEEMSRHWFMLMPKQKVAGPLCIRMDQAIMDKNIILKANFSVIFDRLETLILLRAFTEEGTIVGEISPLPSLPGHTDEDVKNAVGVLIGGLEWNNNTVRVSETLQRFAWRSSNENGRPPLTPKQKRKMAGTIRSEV
Chain of Hepatocyte nuclear factor 4-alpha (P41235 whole entry, the tested form may be a part): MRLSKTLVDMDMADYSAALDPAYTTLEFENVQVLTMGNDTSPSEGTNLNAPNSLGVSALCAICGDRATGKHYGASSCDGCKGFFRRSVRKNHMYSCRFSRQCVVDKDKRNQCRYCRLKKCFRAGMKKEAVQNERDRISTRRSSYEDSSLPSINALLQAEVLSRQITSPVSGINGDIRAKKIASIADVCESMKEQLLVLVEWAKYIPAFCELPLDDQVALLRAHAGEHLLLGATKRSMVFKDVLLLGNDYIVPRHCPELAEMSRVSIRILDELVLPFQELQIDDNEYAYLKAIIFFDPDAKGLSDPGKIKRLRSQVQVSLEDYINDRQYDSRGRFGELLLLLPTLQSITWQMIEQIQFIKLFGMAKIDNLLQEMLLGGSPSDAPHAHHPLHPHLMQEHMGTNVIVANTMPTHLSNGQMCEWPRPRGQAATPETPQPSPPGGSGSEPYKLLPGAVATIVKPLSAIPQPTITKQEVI
Chain of Genome polyprotein (P29990 2492-3391 limits assumed): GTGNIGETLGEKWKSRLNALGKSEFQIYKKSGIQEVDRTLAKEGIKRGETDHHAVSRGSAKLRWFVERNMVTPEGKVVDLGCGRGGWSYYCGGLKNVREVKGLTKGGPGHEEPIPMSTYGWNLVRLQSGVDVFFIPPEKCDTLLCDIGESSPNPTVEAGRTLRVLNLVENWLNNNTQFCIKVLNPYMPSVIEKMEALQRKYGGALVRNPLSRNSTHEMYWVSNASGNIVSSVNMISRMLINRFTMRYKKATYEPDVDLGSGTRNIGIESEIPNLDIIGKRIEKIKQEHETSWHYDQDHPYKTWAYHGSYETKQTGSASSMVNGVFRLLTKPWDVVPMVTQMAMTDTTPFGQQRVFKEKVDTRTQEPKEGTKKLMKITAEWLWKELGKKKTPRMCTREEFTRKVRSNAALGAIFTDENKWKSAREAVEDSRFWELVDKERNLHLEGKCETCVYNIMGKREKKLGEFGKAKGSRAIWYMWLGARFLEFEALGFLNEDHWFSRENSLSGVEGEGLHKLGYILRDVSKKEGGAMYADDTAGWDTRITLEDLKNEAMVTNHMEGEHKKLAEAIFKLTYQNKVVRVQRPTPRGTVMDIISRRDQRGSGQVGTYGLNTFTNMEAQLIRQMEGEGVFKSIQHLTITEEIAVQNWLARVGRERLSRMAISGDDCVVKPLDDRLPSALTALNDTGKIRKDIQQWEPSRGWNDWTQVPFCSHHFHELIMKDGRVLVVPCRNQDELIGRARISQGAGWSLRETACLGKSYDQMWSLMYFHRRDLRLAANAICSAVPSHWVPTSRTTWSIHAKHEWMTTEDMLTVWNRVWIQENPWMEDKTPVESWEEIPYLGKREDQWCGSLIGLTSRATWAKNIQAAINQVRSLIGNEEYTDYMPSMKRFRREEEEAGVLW
Chain of DNA (cytosine-5)-methyltransferase 1 (P26358 whole entry): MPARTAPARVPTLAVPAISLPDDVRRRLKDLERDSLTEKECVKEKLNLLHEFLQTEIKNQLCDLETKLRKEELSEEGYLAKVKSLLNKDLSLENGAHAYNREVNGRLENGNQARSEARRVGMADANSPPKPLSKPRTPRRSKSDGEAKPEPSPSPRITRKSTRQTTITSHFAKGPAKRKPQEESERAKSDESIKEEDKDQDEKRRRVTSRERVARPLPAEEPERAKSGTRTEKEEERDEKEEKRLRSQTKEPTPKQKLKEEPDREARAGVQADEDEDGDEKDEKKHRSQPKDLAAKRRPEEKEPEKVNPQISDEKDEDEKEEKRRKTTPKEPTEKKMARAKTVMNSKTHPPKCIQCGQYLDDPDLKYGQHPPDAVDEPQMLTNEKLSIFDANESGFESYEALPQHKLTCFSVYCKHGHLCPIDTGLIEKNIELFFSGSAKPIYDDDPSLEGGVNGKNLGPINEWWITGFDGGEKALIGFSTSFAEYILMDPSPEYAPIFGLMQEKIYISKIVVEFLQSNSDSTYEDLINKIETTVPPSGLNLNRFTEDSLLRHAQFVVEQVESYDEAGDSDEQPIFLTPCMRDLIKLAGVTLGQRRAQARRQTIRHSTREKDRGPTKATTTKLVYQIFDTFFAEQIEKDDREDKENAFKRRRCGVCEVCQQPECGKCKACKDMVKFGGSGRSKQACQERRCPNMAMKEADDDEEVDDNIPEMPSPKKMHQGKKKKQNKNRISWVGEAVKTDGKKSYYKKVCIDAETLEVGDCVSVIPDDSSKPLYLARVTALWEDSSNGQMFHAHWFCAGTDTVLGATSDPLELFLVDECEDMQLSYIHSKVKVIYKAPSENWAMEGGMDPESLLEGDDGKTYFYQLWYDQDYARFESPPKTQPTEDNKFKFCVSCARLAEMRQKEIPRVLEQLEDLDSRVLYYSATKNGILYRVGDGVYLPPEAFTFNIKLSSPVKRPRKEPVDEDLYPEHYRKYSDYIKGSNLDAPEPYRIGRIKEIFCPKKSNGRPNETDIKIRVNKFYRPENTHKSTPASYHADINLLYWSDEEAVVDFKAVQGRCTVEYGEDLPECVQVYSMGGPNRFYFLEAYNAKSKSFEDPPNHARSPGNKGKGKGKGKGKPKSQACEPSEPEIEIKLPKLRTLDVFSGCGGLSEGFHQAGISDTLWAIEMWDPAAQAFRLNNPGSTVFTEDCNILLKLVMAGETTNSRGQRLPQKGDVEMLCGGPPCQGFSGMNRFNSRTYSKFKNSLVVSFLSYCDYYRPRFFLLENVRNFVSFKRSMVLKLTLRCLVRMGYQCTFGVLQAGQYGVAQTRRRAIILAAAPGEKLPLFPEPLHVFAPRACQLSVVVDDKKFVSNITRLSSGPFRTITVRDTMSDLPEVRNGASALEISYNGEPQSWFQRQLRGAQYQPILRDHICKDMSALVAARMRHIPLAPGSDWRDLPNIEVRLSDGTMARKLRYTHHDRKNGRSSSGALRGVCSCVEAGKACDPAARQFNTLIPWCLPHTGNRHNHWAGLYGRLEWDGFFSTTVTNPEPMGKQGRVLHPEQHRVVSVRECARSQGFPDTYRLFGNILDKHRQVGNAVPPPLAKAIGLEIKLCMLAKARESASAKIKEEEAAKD

CCOC(=O)C(C)Sc1ncnc2c1nnn2-c1ccc(F)cc1 (stereo not drawn)
EC50 [1]: 10.9 µM (active)
AC50 [2]: 10.4 µM (active)
CC50 [3]: 67.1 µM (active)
CC50 [4]: 55.2 µM (active)

Cc1nn(-c2ccccc2)c(Cl)c1/C=N/Nc1ccc(S(=O)(=O)Nc2ccccc2C(=O)O)cc1[N+](=O)[O-]
IC50 [5]: 33.1 µM (active)
IC50 [6]: 6.84 µM (active)
IC50 [7]: 4.29 µM (active)
IC50 [8]: 67.6 µM (active)
IC50 [9]: > 50 µM (not active)
EC50 [10]: 1.86 µM (active)
EC50 [11]: 4.27 µM (active)
IC50 [12]: 7.26 µM (active)

C=CCn1cnc2c(c1=O)c1nc3ccccc3nc1n2/N=C/c1cccc(OC)c1OC
IC50 [13]: 2.21 µM (active)
IC50 [14]: 10.1 µM (active)
IC50 [15]: 3.36 µM (active)
EC50 [16]: > 53 µM (inactive)

O=C(NC1CCCCC1)C(c1cccc2ccccc12)n1c(=O)c(-c2ccco2)nc2ccccc21 (stereo not drawn)
IC50 [17]: 1.48 µM (active)

CC1(COc2ccc(CC3SC(=O)NC3=O)cc2)CCCCC1 (stereo not drawn) [CIGLITAZONE]
AC50 [18]: 56.2 µM (inconclusive)

Source: ChEMBL document CHEMBL1201862, “PubChem BioAssay data set” (2004)
